{"source": "patent US7829110B2", "about": "“Surgical implant comprising an anabolic and a corticosteroid” (Ethicon, Inc., priority 2003, dated 2010)", "test_system": "fibroblast (human, dermal)", "experiment": "fibroblast contraction (human, dermal)", "assay_type": "cell-based", "conditions": "human dermal fibroblasts; even at low doses", "excerpt": "Cortisone prevents fibroblast contraction (human, dermal) even at low doses (below 10^−6 M)"}
{"smiles": "C[C@]12CCC(=O)C=C1CC[C@@H]1[C@@H]2C(=O)C[C@@]2(C)[C@H]1CC[C@]2(O)C(=O)CO", "note": "[Cortisone, cortisone]", "values": [{"measurement": "dose preventing fibroblast contraction", "value": "below 10^−6 M"}]}
